{
  "source": "patent US20050019386A1",
  "about": "(priority 2001, published 2005)",
  "key": {"[1]": {"test_system": "two human glioblastoma in a nude model", "conditions": "free form, 12.5 mg/kg/4 days; cited from earlier work"}, "[2]": {"test_system": "ovarian carcinoma (human) on a nude mouse", "assay": "Oral application, tumour mass of human ovarian carcinoma on nude mouse", "assay_type": "in vivo", "conditions": "oral form of administration, Taxol 50 mg bolus"}},
  "data": [
    {"compound": "CC(=O)O[C@H]1C(=O)[C@@]2(C)[C@H]([C@H](OC(=O)c3ccccc3)[C@]3(O)C[C@H](OC(=O)[C@H](O)[C@@H](NC(=O)c4ccccc4)c4ccccc4)C(C)=C1C3(C)C)[C@]1(OC(C)=O)CO[C@@H]1C[C@@H]2O", "note": "[unencapsulated taxol, paclitaxel]", "values": [
      {"measurement": "growth of the tumour", "setting": "[1]", "value": "significant reduction of the growth of the tumour"},
      {"measurement": "effectivity determined on the basis of the tumour mass", "setting": "[2]", "value": "hardly being reduced"}
    ]}
  ]
}
